Values quoted from earlier work, collected in article PMC4891577, “Exploiting Phenylpropanoid Derivatives to Enhance the Nutraceutical Values of Cereals and Legumes” (Frontiers in Plant Science, 2016).

Tests used:
[1] = tested on: Caco-2 cells; parameters: method as in Hart et al., 2015; details: polyphenols of black bean seed coats; ref Hart et al., 2015
[2] = tested on: lipogenic proteins; parameters: method as in Chavez-Santoscoy et al., 2014; Ramírez-Jiménez et al., 2015; details: black bean flavonoid; ref Chavez-Santoscoy et al., 2014; Ramírez-Jiménez et al., 2015

Structure (SMILES)	effect on Fe uptake [1]	effect on expression of lipogenic proteins [2]
O=C(O)c1ccc(O)c(O)c1 [3,4-dihydroxybenzoic acid]	promote Fe uptake	
O.Oc1cc(O)c2c(c1)O[C@H](c1ccc(O)c(O)c1)[C@@H](O)C2 [Catechin]	promote Fe uptake	
O=c1c(O[C@@H]2O[C@H](CO)[C@@H](O)[C@H](O)[C@H]2O)c(-c2ccc(O)cc2)oc2cc(O)cc(O)c12 [kaempferol 3-glucoside]	promote Fe uptake	
O=c1c(O)c(-c2ccc(O)cc2)oc2cc(O)cc(O)c12 [kaempferol]	promote Fe uptake	
O=c1c(OC2O[C@H](CO)[C@@H](O)[C@H](O)[C@H]2O)c(-c2cc(O)c(O)c(O)c2)oc2cc(O)cc(O)c12 (stereo partly drawn) [myricetin 3-glucoside]	inhibit Fe uptake	
O=c1c(O)c(-c2cc(O)c(O)c(O)c2)oc2cc(O)cc(O)c12 [myricetin]	inhibit Fe uptake	
O=c1c(O[C@@H]2O[C@H](CO)[C@@H](O)[C@H](O)[C@H]2O)c(-c2ccc(O)c(O)c2)oc2cc(O)cc(O)c12 [quercetin 3-glucoside]	inhibit Fe uptake	strong effects on down-regulation of expression of lipogenic proteins
O=c1c(O)c(-c2ccc(O)c(O)c2)oc2cc(O)cc(O)c12 [quercetin]	inhibit Fe uptake	
